Experimental data: the supplement of paper PMC7394473

Key:
Details in all cases: 72 h
U2OS [1] = test: fractional viability (live cells / total cells); higher = less cell death
Protocol: (§1)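 U2OS::Nuc-mKate2 cells seeded in 96-well plates and treated with eight- to ten-point half-log or log dilutions of drug in the presence of 50 nM SYTOX Green. Live (mKate2+) and dead (SYTOX+) cells were counted by IncuCyte STACK live-cell microscopy at 72 h; biological triplicates. GR is the normalised growth-rate inhibition value (Hafner 2016; 1 = untreated growth, <0 = population shrinking). FV is live/(live+dead) cells, not normalised.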

U2OS [2] = test: GRmin (fitted minimal GR value at highest effect) (GR value (dimensionless)); higher = less efficacious
Protocol: (§2)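 U2OS cells treated with full dose titrations of drug; live and dead cells counted by STACK microscopy (mKate2 nuclei, SYTOX Green) at 72 h, biological triplicates. GR and FV dose responses were fitted with 4-parameter logistic models (GR lower bound -1). GRADE (0-100) is the rescaled angle of a linear fit of FV versus GR at doses with GR >= 0, giving the percentage of the response due to cell death.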

U2OS [3] = test: normalized growth rate inhibition value (GR) relative to untreated cells (GR value (dimensionless, 1 = untreated growth)); higher = less growth inhibition
Protocol: as §1

U2OS [4] = test: GR50 (concentration giving GR = 0.5)
Protocol: as §2

U2OS [5] = test: drug GRADE (percent of response due to cell death) (% (0-100)); higher = more death-driven response
Protocol: as §2

CC1CCc2cc(F)cc3c(=O)c(C(=O)O)cn1c23 (stereo unspecified) [Flumequine]
Details | fractional viability, U2OS [1] | normalized growth rate inhibition value, U2OS [3]
0.01 µM | 0.98 | 0.959
0.0316 µM | 0.971 | 1.02
0.1 µM | 0.981 | 0.966
0.316 µM | 0.977 | 0.928
1 µM | 0.971 | 0.907
3.16 µM | 0.974 | 0.962
10 µM | 0.977 | 1.1
31.6 µM | 0.976 | 0.969

Details | GRmin
U2OS [2] | 1

O=C(O)CCNc1cc(N2CCc3ccccc3CC2)nc(-c2ccccn2)n1 [GSKJ1]
Details | fractional viability, U2OS [1] | normalized growth rate inhibition value, U2OS [3]
0.01 µM | 0.979 | 1.03
0.0316 µM | 0.981 | 0.985
0.1 µM | 0.98 | 0.962
0.316 µM | 0.976 | 1.06
1 µM | 0.985 | 1.02
3.16 µM | 0.974 | 0.996
10 µM | 0.975 | 1.01
31.6 µM | 0.974 | 0.83

Details | GRmin
U2OS [2] | 0.339

C=CCc1ccc(O)c(-c2ccc(O)c(CC=C)c2)c1 [Honokiol]
Details | fractional viability, U2OS [1] | normalized growth rate inhibition value, U2OS [3]
0.01 µM | 0.978 | 1.04
0.0316 µM | 0.974 | 1.07
0.1 µM | 0.978 | 0.96
0.316 µM | 0.983 | 1.03
1 µM | 0.978 | 0.897
3.16 µM | 0.979 | 0.981
10 µM | 0.981 | 0.95
31.6 µM | 0.969 | 0.774

CC(C)n1nc(-c2ccc3oc(N)nc3c2)c2c(N)ncnc21 [INK-128]
Details | GR50 [µM] | GRmin | drug GRADE
U2OS [2] | – | 0.0247 | –
U2OS [4] | 0.0318 | – | –
U2OS [5] | – | – | 10.9

Details | fractional viability, U2OS [1] | normalized growth rate inhibition value, U2OS [3]
0.000318058 µM | 0.987 | 0.831
0.00100506 µM | 0.989 | 0.849
0.003176 µM | 0.989 | 0.896
0.0100362 µM | 0.987 | 0.726
0.0317143 µM | 0.982 | 0.484
0.100217 µM | 0.965 | 0.226
0.316686 µM | 0.95 | 0.223
1.00073 µM | 0.915 | 0.0973
3.1623 µM | 0.855 | -0.0193

CC(C)NC[C@@H](C(=O)N1CCN(c2ncnc3c2[C@H](C)C[C@H]3O)CC1)c1ccc(Cl)cc1 [Ipatasertib]
Details | fractional viability, U2OS [1] | normalized growth rate inhibition value, U2OS [3]
0.00100578 µM | 0.99 | 0.9
0.00317827 µM | 0.986 | 0.946
0.0100433 µM | 0.986 | 1.14
0.0317369 µM | 0.983 | 0.981
0.100289 µM | 0.986 | 0.885
0.316912 µM | 0.988 | 0.945
1.00144 µM | 0.987 | 0.88
3.16456 µM | 0.976 | 0.824
10 µM | 0.947 | 0.548

Details | drug GRADE
U2OS [5] | 6.49

CC1(C)CCC(c2ccc(Cl)cc2)=C(CN2CCN(c3ccc(C(=O)NS(=O)(=O)c4ccc(N[C@H](CCN5CCOCC5)CSc5ccccc5)c(S(=O)(=O)C(F)(F)F)c4)cc3)CC2)C1 [Navitoclax]
Details | fractional viability, U2OS [1] | normalized growth rate inhibition value, U2OS [3]
0.01 µM | 0.98 | 0.981
0.0316 µM | 0.983 | 1.04
0.1 µM | 0.978 | 0.941
0.316 µM | 0.978 | 1.02
1 µM | 0.978 | 0.95
3.16 µM | 0.972 | 0.94
10 µM | 0.947 | 0.841
31.6 µM | 0.887 | 0.891

Details | GRmin
U2OS [2] | 0.866

CO[C@@H]1C[C@@H](C[C@H]2CC[C@H](C)[C@H]([C@@H](C)C(=O)O)O2)O[C@]2(O[C@](C)([C@H]3CC[C@@](C)([C@@H]4O[C@@H]([C@H]5O[C@@](O)(CO)[C@H](C)C[C@@H]5C)C[C@@H]4C)O3)C[C@H]2C)[C@@H]1C [Nigericin]
Details | GR50 [µM] | GRmin | drug GRADE
U2OS [2] | – | -0.311 | –
U2OS [4] | 0.436 | – | –
U2OS [5] | – | – | 57.3

Details | fractional viability, U2OS [1] | normalized growth rate inhibition value, U2OS [3]
0.01 µM | 0.963 | 0.857
0.0316 µM | 0.957 | 0.78
0.1 µM | 0.903 | 0.777
0.316 µM | 0.829 | 0.484
1 µM | 0.625 | 0.277
3.16 µM | 0.661 | 0.287
10 µM | 0.685 | 0.155
31.6 µM | 0.449 | -0.106

O=C(c1cc(Cc2n[nH]c(=O)c3ccccc23)ccc1F)N1CCN(C(=O)C2CC2)CC1 [Olaparib]
Details | fractional viability, U2OS [1] | normalized growth rate inhibition value, U2OS [3]
0.00100578 µM | 0.992 | 1.03
0.00317827 µM | 0.988 | 0.94
0.0100433 µM | 0.989 | 1.03
0.0317369 µM | 0.992 | 1.02
0.100289 µM | 0.99 | 0.964
0.316912 µM | 0.989 | 0.956
1.00144 µM | 0.987 | 0.922
3.16456 µM | 0.982 | 0.85
10 µM | 0.96 | 0.511

Details | drug GRADE
U2OS [5] | 6.58

CC(=O)c1c(C)c2cnc(Nc3ccc(N4CCNCC4)cn3)nc2n(C2CCCC2)c1=O [Palbociclib]
Details | GR50 [µM] | GRmin | drug GRADE
U2OS [2] | – | 0.176 | –
U2OS [4] | 1.15 | – | –
U2OS [5] | – | – | 3.13

Details | fractional viability, U2OS [1] | normalized growth rate inhibition value, U2OS [3]
0.000317827 µM | 0.992 | 1.08
0.00100433 µM | 0.992 | 0.975
0.00317369 µM | 0.99 | 0.904
0.0100289 µM | 0.989 | 0.841
0.0316912 µM | 0.989 | 0.721
0.100144 µM | 0.984 | 0.769
0.316456 µM | 0.988 | 0.639
1 µM | 0.987 | 0.525
3.16 µM | 0.972 | 0.398
